{"source": "patent US6015831A", "about": "“Thiophene nitrone compounds” (Centaur Pharmaceuticals, Inc., priority 1999, dated 2000)", "key": {"synthetic Aβ(1-42)": {"system": "synthetic Aβ(1-42)", "test": "Inhibition of Aβ beta-pleated sheet formation (thioflavin T fluorescence)", "assay_type": "biochemical", "settings": "test compound 10 μM, ThT 3 μM, PBS pH 6.0, 12 hours; stated as alternative: this 'or' IL-1β release, tested in at least one test", "excerpt": "The deposition of amyloid β-peptide (Aβ) is associated with the development of Alzheimer's disease. See, for example, G. G. Glenner et al. (1984) Biochem. Biophys. Res. Commun., 120:885-890; and R. E. Tanzi (1989) Ann. Med, 21:91-94. Accordingly, compounds which effectively disrupt the formation of Aβ(1-40) or Aβ(1-42) beta-pleated sheets are potentially useful for preventing and/or reversing such amyloid deposits. Thioflavin T (ThT) is known to rapidly associate with beta-pleated sheets, particularly the aggregated fibrils of synthetic Aβ(1-42). This association gives rise to an excitation maximum at 440 nm and to an emission at 490 nm.\nThe experiments were performed using a CytoFluor II fluorescence plate reader having the following parameters:\nInto each well was aliquoted 95 μl of ThT (3 μM) prepared in PBS (pH 6.0), 2 μL of the compound to be tested (10 μM) prepared with 0.05% of methylcellulose in PBS (pH 6.0), and 3 μL of Aβ(1-42)(3 μg) prepared with dH2 O. The fluorescence measurement began when the Aβ(1-42) was added and continued for a total of 12 hours. The percent inhibition of beta-pleated sheet formation was calculated from the relative fluorescence unit difference between aggregation in the presence and in the absence of the test compounds. Inhibition of Aβ(1-42) beta-pleated sheet formation by at least 30% compared to the controls is considered significant in this test."}, "[1]": {"system": "IL-1β release, THP-1 cells", "test": "Reduction of β-amyloid-induced increased release of interleukin-1β in LPS-stimulated THP-1 cells (ELISA)", "assay_type": "cell-based", "settings": "Homo sapiens, test compound 100 μM, LPS 0.5 μg/mL + Aβ(25-35) 5 μM, 48 hours, stated as alternative: this 'or' Aβ(1-42) sheet formation, tested in at least one test, read-out: inhibition of β-amyloid-induced increase release of interleukin-1β compared to the controls", "procedure": "THP-1 cells, a human monocyte cell line from American Type Culture Collection, were grown in RPMI-1640 medium plus 10% fetal bovine serum (FBS, not heat-inactivated) in T-flasks. The medium was changed every two days by spinning down the cells (800 rpm, 5 minutes) and adding the same fresh medium. Alternatively, the cultures were maintained by supplementation with fresh medium. The cultures were maintained at a cell concentration ranging from between 1×10^5 and 1×10^6 cells/mL. Because sera may contain unknown factors which can affect macrophage/monocyte IL-1 production, the FBS was reduced to 5% for 24 hours. The FBS was further reduced to 2% over two days prior to starting each experiment. The cells were collected by centrifugation and resuspended in media containing 2% FBS. Cell numbers were calculated and cells were plated on 24-well plates (3×10^5 cells/0.6 mL/well). Cells were then treated with LPS (0.5 μg/mL) alone or in combination with Aβ peptides (5 μM). […]\n1L-1β secretions into medium by LPS-stimulated THP-1 cells, in the presence or absence of amyloid peptides and a test compound, were assayed with a commercially available ELISA kit (R & D Systems). […] Color development was stopped with 2 N sulfuric acid and the optical density of the standard and the test samples was measured at 450 nm. The amount of IL-1β present in the samples were calculated based upon a standard curve. […]"}}, "data": [{"smiles": "COc1ccc(Sc2ccc(C=[N+]([O-])C(C)(C)C)s2)cc1", "note": "[Example 1, α-[2-(4-Methoxyphenylthio)-5-thienyl]-N-tert-butylnitrone]", "values": [{"measurement": "inhibition of Aβ(1-42) beta-pleated sheet formation compared to the controls", "setting": "synthetic Aβ(1-42)", "result": "at least 30%"}, {"measurement": "inhibition at 100 µM", "setting": "[1]", "result": "≥ 30", "unit": "%"}]}, {"smiles": "COc1ccc(Sc2ccc(C=[N+]([O-])C3CCCCC3)s2)cc1", "note": "[Example 2, α-[2-(4-Methoxyphenylthio)-5-thienyl]-N-cyclohexylnitrone]", "values": [{"measurement": "inhibition of Aβ(1-42) beta-pleated sheet formation compared to the controls", "setting": "synthetic Aβ(1-42)", "result": "at least 30%"}, {"measurement": "inhibition at 100 µM", "setting": "[1]", "result": "≥ 30", "unit": "%"}]}]}
